The values that follow come from BindingDB's records for doi:10.1016/j.ejmech.2020.113045 (Rheinische Friedrich-Wilhelms-University of Bonn, 2021).

pEC50: −log10 of the molar value.

The first data set can be described thus: Inhibition of ABCG2 (unknown origin) expressed in MDCK-II cells assessed as potentiation of SN-38-induced cytotoxicity measured after 72 hrs by MTT assay. (In general: Formazan colour is commonly taken as a measure of viable cells.)
The term pEC50 denotes the EC50 on a negative log10 scale, so that one unit is a factor of ten. Consider `CCCNc1cc(Nc2ccc(C#N)cc2)nc(-c2ccccc2)n1`, for which the pEC50 is 7.82. Regarding `CC(C)Nc1cc(Nc2ccc(C#N)cc2)nc(-c2ccccc2)n1`, the pEC50 is 7.74. As to `N#Cc1ccc(Nc2cc(Nc3ccc(C#N)cc3)nc(-c3ccccc3)n2)cc1`, the pEC50 is 6.64.

In the case of `N#Cc1ccc(Nc2cc(NCCCCc3ccccc3)nc(-c3ccccc3)n2)cc1`, the pEC50 is 6.73. `N#Cc1ccc(Nc2cc(NCc3ccccc3)nc(-c3ccccc3)n2)cc1`: the pEC50 was 7.59. As to `N#Cc1ccc(Nc2cc(Nc3ccccc3)nc(-c3ccccc3)n2)cc1`, the pEC50 is 7.36. On to `N#Cc1ccc(Nc2cc(-c3ccccc3)nc(-c3ccccc3)n2)cc1`, for which the pEC50 is 7.39.

As for `N#Cc1ccc(Nc2cc(Nc3ccccc3O)nc(-c3ccccc3)n2)cc1`, the pEC50 was 6.83.

For the compound `N#Cc1ccc(Nc2cc(Nc3ccc(O)cc3)nc(-c3ccccc3)n2)cc1`, the pEC50 is 6.77.

For the compound `CNc1cc(Nc2ccc(C#N)cc2)nc(-c2ccccc2)n1`, the pEC50 was 7.66.

As for `CCCCNc1cc(Nc2ccc(C#N)cc2)nc(-c2ccccc2)n1`, the pEC50 was 7.52. Still for that read-out and setting: as for `N#Cc1ccc(Nc2cc(NCCCc3ccccc3)nc(-c3ccccc3)n2)cc1`, the figure is 7.17; as for `N#Cc1ccc(Nc2cc(NCc3ccccn3)nc(-c3ccccc3)n2)cc1`, 7.80; as for `N#Cc1ccc(Nc2cc(NCc3cccnc3)nc(-c3ccccc3)n2)cc1`, 7.36.

For `N#Cc1ccc(Nc2cc(NCc3ccncc3)nc(-c3ccccc3)n2)cc1`, the pEC50 was 7.14. In the case of `N#Cc1ccc(Nc2cc(Nc3cccc(O)c3)nc(-c3ccccc3)n2)cc1`, the pEC50 was 6.74.

Another data set is described as follows: Inhibition of ABCB1 (unknown origin) expressed in human A2780 ADR cells assessed as potentiation of daunorubicin-induced cytotoxicity measured after 72 hrs by MTT assay.
For the compound `N#Cc1ccc(Nc2cc(Nc3ccccc3O)nc(-c3ccccc3)n2)cc1`, the pEC50 was 4.46.
